Test results reported in BindingDB's records for doi:10.1016/s0960-894x(98)00672-6 (University of Maryland, 1999).

Biological target: Guanine deaminase (Oryctolagus cuniculus)
Experiment: Compound was tested for its inhibitory effect on rabbit liver guanase

- Ki: 227 µM
SMILES: O=c1cnc2c(ncn2Cc2ccccc2)c(=O)[nH]1 [3-Benzyl-3H-imidazo[4,5-e][1,4]diazepine-6,8-dione]
